The text below walks through data of patent US8569292B2, “Cyclic inhibitors of 11β-hydroxysteroid dehydrogenase 1” (Vitae Pharmaceuticals, Inc., priority 2008, dated 2013).

One series concerns the target CYP3A4 (Homo sapiens, UniProt P08684). Put plainly: Biological Test Example 6: CYP3A4 inhibition (erythromycin N-demethylation). The class given is in vitro ADME.
A further series deals with CYP2C19 (Homo sapiens, UniProt P33261). Put plainly: Biological Test Example 8: CYP2C19 inhibition (diazepam N-demethylation). The class given is in vitro ADME.
Series [1] deals with T1, CYP2C9 (Homo sapiens, UniProt P11712).
T1 construct: purchased Invitrogen 2859; host or cells: insect cells infected with baculovirus (microsomes)
Put plainly: Biological Test Example 9: CYP2C9 inhibition (Invitrogen kit, fluorogenic OOMR). The class given is in vitro ADME.

A short description of series [2]: Biological Test Example 5: fraction unbound in human plasma (equilibrium dialysis). The class given is in vitro ADME. The method, then:
Plasma protein binding of compounds was determined with Equilibrium Dialysis of spiked plasma against compound free dextrane buffer using a dialysis membrane with mass cutoff of 5000 Da. Compound concentrations in plasma and buffer after incubation were measured using HPLC/Mass spectrometry.
(In equilibrium dialysis only unbound substance equilibrates across the membrane.)

Series [3] concerns the target T2, 11β-HSD1 (Homo sapiens, UniProt P28845). Put plainly: biochemical. As to conditions: for inhibition at 0.1 µM: read-out: Average % inhibition at 100 nM.
Series [4] deals with T1, CYP2C9. The series can be described thus: Biological Test Example 7: CYP2C9 inhibition (naproxen O-demethylation). The class given is in vitro ADME.
Series [5] addresses T2, 11β-HSD1. The series can be described thus: Biological Test Example 4: microsomal 11β-HSD1 in the presence of 50% human plasma.
Series [6] concerns the target T2, 11β-HSD1.
[7] abbreviates: Biological Test Example 1 IC50 (nM).
Where [8] appears, read: IC50 Range, Biological Test Example 1.

Where two headings read alike, the source gives them in different places.

Chain of CYP2C19 (P33261 whole entry): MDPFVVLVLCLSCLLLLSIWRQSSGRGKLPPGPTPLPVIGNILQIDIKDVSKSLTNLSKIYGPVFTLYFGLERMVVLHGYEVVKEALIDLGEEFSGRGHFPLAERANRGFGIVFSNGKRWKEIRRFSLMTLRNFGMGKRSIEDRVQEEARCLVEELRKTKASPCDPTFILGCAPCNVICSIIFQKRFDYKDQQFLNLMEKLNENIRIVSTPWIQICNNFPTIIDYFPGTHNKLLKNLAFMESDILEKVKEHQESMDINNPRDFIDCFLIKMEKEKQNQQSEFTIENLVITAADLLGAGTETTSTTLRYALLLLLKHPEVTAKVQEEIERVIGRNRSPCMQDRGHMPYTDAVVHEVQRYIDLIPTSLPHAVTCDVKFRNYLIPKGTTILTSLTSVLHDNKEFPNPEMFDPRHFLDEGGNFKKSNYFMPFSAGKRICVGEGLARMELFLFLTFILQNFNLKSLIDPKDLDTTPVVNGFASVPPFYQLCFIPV
Chain of CYP3A4 (P08684 whole entry): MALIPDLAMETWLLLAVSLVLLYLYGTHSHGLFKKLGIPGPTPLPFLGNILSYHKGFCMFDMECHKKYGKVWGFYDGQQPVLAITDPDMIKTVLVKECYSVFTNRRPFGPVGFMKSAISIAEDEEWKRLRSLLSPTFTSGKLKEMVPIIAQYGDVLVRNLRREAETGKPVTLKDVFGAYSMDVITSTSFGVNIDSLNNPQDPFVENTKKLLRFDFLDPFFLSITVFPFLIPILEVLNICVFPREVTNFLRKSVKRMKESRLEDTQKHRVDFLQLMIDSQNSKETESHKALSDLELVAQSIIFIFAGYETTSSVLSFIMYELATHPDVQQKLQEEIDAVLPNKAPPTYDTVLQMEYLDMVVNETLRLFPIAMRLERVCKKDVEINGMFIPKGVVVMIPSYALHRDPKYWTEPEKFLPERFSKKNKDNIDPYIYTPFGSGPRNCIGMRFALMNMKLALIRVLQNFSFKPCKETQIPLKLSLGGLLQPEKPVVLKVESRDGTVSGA
T1 sequence (P11712 whole entry): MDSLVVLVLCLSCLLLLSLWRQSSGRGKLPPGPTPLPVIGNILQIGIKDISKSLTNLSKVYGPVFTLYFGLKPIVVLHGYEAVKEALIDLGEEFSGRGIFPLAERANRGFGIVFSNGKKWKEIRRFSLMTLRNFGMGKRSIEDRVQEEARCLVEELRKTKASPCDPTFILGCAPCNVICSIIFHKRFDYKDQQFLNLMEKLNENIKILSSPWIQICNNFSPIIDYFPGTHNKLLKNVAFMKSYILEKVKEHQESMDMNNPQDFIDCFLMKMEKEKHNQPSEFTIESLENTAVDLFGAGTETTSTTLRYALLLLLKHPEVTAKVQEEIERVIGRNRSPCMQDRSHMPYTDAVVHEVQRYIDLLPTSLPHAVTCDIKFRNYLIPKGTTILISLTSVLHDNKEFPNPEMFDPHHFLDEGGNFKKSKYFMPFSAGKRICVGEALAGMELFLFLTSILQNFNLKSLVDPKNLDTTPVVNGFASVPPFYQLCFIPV
T2 sequence (P28845 whole entry): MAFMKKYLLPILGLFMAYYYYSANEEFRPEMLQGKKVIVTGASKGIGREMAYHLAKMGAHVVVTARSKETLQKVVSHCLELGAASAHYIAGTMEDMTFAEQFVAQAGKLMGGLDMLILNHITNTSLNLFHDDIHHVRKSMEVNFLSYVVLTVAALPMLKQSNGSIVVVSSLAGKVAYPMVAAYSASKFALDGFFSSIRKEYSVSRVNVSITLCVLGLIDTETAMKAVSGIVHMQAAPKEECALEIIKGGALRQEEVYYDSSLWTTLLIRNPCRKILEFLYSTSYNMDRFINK

A word on the IC50: it is the concentration that inhibits the measured activity by half. The term inhibition denotes how much of the control response was suppressed. Consider `C[C@@H](c1ccc(-c2cnccn2)cc1)N1CC[C@](CC(C)(C)O)(c2ccccc2)OC1=O` [EXAMPLE 130, (S)-6-(2-hydroxy-2-methylpropyl)-6-phenyl-3-((S)-1-(4-(pyrazin-2-yl)phenyl)ethyl)-1,3-oxazinan-2-one], for which the IC50 was 11.8 µM against CYP3A4; 3 µM against CYP2C19; 9.7 µM against CYP2C9 [1]; 2.5 nM on 11β-HSD1 [3] (setting [7]); under 100 nM at 11β-HSD1 [3] (setting [8]); over 50 µM on CYP2C9 [4]. In addition, the concentration for half-maximal inhibition (IC50) at 11β-HSD1 [5] amounted to 0.0216 µM. In addition, the “Biological Test Example 5 (%)” value in series [2] is reported as 1.9%. In addition, at 11β-HSD1 [3], the inhibition at 0.1 µM turned out to be 97.9%.

Consider `Cc1ncc(-c2ccc([C@H](C)N3CC[C@](CC(C)(C)O)(c4ccccc4)OC3=O)cc2)cn1` [EXAMPLE 149, (S)-6-(2-hydroxy-2-methylpropyl)-3-((S)-1-(4-(2-methylpyrimidin-5-yl)phenyl)ethyl)-6-phenyl-1,3-oxazinan-2-one], for which the IC50 on CYP3A4 was over 50 µM; against CYP2C19, over 50 µM; against CYP2C9 [1] it was 17.4 µM; against CYP2C9 [4] it was over 50 µM. The “Biological Test Example 5 (%)” value in series [2] turned out to be 2.7%.

In the case of `C[C@@H](c1ccc(-c2ccc(F)cn2)cc1)N1CC[C@](CC(C)(C)O)(c2ccccc2)OC1=O` [EXAMPLE 136, (S)-3-((S)-1-(4-(5-fluoropyridin-2-yl)phenyl)ethyl)-6-(2-hydroxy-2-methylpropyl)-6-phenyl-1,3-oxazinan-2-one], the IC50 came to 24.1 µM on CYP3A4, 24.7 µM against CYP2C19, 9.6 µM on CYP2C9 [1] and 20.1 µM against CYP2C9 [4]. Also, in series [2], the “Biological Test Example 5 (%)” value is given as 0.3%.

Consider `Cc1ccc(-c2ccc([C@H](C)N3CC[C@](CC(C)(C)O)(c4ccccc4)OC3=O)cc2)nn1` [EXAMPLE 134, (S)-6-(2-hydroxy-2-methylpropyl)-3-((S)-1-(4-(6-methylpyridazin-3-yl)phenyl)ethyl)-6-phenyl-1,3-oxazinan-2-one], for which the concentration for half-maximal inhibition (IC50) was over 50 µM against CYP3A4, over 50 µM against CYP2C19, over 30 µM against CYP2C9 [1] and over 50 µM at CYP2C9 [4]. In addition, the “Biological Test Example 5 (%)” value in series [2] stood at 10.5%.

On to `C[C@@H](c1ccc(-c2ccc(C#N)cn2)cc1)N1CC[C@](CC(C)(C)O)(c2ccccc2)OC1=O` [EXAMPLE 138, 6-(4-((S)-1-((S)-6-(2-hydroxy-2-methylpropyl)-2-oxo-6-phenyl-1,3-oxazinan-3-yl)ethyl)phenyl)nicotinonitrile], for which the IC50 against CYP3A4 amounted to 12.7 µM; on CYP2C19 it was 24.2 µM; at CYP2C9 [4] it was 22.2 µM. The “Biological Test Example 5 (%)” value in series [2] was determined as 2%.

As to `C[C@@H](c1ccc(-c2ccc(C#N)cn2)cc1)N1CC[C@](CC(C)(C)O)(c2ccc(F)cc2)OC1=O` [EXAMPLE 111, 6-(4-((S)-1-((S)-6-(4-fluorophenyl)-6-(2-hydroxy-2-methylpropyl)-2-oxo-1,3-oxazinan-3-yl)ethyl)phenyl)nicotinonitrile], the IC50 against CYP3A4 was 9.8 µM; at CYP2C19, over 50 µM; against CYP2C9 [1], 4.7 µM; on 11β-HSD1 [3] (setting [7]), 0.8 nM; against 11β-HSD1 [3] (setting [8]), under 100 nM; at CYP2C9 [4], over 50 µM. The half-maximal inhibitory concentration (IC50) on 11β-HSD1 [5] is 0.0072 µM. Moreover, the “Biological Test Example 5 (%)” value in series [2] was determined as 2%. Also, the inhibition at 0.1 µM at 11β-HSD1 [3] was determined as 97.6%.

For `Cc1cc(-c2ccc([C@H](C)N3CCC(CCN4CCCS4(=O)=O)(c4ccccc4)OC3=O)cc2)ccn1` (stereo in doubt) [EXAMPLE 118, (R)-3-((S)-1-(4-(2-methylpyridin-4-yl)phenyl)ethyl)-6-phenyl-6-(2-(1,1-dioxoisothiazolidin-2-yl)ethyl)-1,3-oxazinan-2-one], at 11β-HSD1 [6] (100 nM), the “Average % inhibition at 100 nM” value turned out to be 86.3%. Also, the IC50 at 11β-HSD1 [6] (read-out: Biological Test Example 1 IC50) is 0.0192 µM; on 11β-HSD1 [6] (read-out: IC50 Range, Biological Test Example 1), under 0.1 µM.
